Source: patent US20190351012A1, “TARGETING OF INTERFERON-STIMULATED GENE EXPRESSION TO TREAT INTERFERONOPATHIES” (New York University, priority 2018, published 2019)

Assays:
[1] = tested on: ISG54 promoter and G6TI control templates; test: In vitro transcription run-off assay with nuclear extracts and recombinant ISGF3; type: biochemical, human; details: TSA included in run-off reaction, naked DNA templates
Source text: FIG. 2. […] (A) Nuclear extracts from HEK293T cells expressing activated recombinant ISGF3 (STAT1, STAT2, IRF9 and JAK1) or transfected with vector (Ctl) were programmed with G6TI-CAT (G6TI) or p107 (ISG54) templates. Radiolabeled RNA transcripts were resolved by polyacrylamide-urea gel electrophoresis. Arrow and arrowhead indicate position of the transcripts from G6TI-CAT and p107, respectively. (B) HeLa cells were either left untreated or treated with IFN-α in the absence or presence of TSA (TSA in vivo) before nuclei were isolated for run-on transcription. Where indicated, TSA was added to the elongation reaction in vitro (TSA in vitro). Specific signals from γ-actin, ISG15, ISG56, 6-16, 9-27, IRF9 and GBP transcription were quantified following filter hybridization and normalized to the signal for GAPDH, arbitrarily set to 100. Representative data from three independent experiments are shown. FS2 human diploid fibroblasts were starved for 72 h before being treated with IFN-α for 7.5 h in the absence or presence of TSA. Mononucleosomal DNA fraction was purified from MNase-digested nuclei and analyzed for nucleosome positions by PCR quantitation of protected fragments. All samples were quantified by real-time PCR, except the—53—+1 ISG54 fragment, which was quantified by gel electrophoresis (C). […]

[2] = tested on: BRD4 at ISG56, Mx1 and IRF9 TSS; test: ChIP-qPCR for BRD4 at ISG promoters in HeLa cells; type: cell-based, human; details: 1 h IFN stimulation
Experimental: FIG. 5. BRD4 is required for ISG transcription. (A) HeLa cells were either left untreated or treated with IFN-α for 1 h in presence or absence of JQ-1 or HMBA. Using primers spanning intron-exon junctions, nuclear pre-mRNA for ISG54 and γ-actin were quantified by real-time RT-PCR and normalized to GAPDH mRNA. (B) Control and BRD4 KD cells were either left untreated or treated with IFN-α. ISG56 and BRD4 mRNA were quantified using real-time RT-PCR and normalized to GAPDH mRNA abundance. (C) HEK293T cells were transfected with pcDNA3 (Ctl) or Brd4 expression constructs along with a luciferase reporter driven by the ISG54 promoter. 24 h after transfection, cells were either left untreated or treated with IFN-α in the absence or presence of TSA before being assayed for luciferase activity (left panel). […] Nuclear proteins were extracted as a soluble fraction and a chromatin bound fraction and analyzed by western blotting using anti-BRD4, H4-AcK5 and actin antibodies. […] (F) ChIP assays were performed with antibodies against BRD4 and recovered ISG56, Mx1 and IRF9 TSS spanning sequences were quantified by real-time PCR, normalized to input, and represented as fold enrichment over the untreated sample. […]
Chromatin immunoprecipitation was performed as follows. […] Immunoprecipitated DNA sequences were recovered by alcohol precipitation and quantified by real-time PCR compared with input genomic DNA. […]

CC(/C=C/C(=O)NO)=C\[C@@H](C)C(=O)c1ccc(N(C)C)cc1 [TSA, Trichostatin A]
inhibition of basal and ISGF3-dependent transcription in vitro [1]: neither basal nor ISGF3-dependent transcription was inhibited | IFN-induced BRD4 recruitment to ISG promoters [2]: abrogated
